Experimental data from patent publication US10329309B2, “3-(3H-imidazo[4,5-B]pyridin-2-yl)-1H-pyrazolo[4,3-B]pyridines and therapeutic uses thereof” (Samumed, LLC, priority 2015, dated 2019).

How the values were obtained:
[1] = tested on: Wnt activity (Sp5-Luc reporter, SW480 colon carcinoma cells); experiment: Screening assay for Wnt activity: Sp5-Luc reporter gene assay in SW480 cells; assay type: cell-based; conditions: Homo sapiens; for inhibition at 10 µM: 10 μM compound, read-out: percent inhibition at 10 μM (given for EC50 of >10 μM); for EC50: overnight incubation, 10-point dose-response from 10 μM
How it was run: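 Luminescence (BrightGlo) read after overnight 37 °C exposure of Sp5-Luc SW480 reporter cells, 4,000/well in 1% FBS, to compound dosed 1:3 over 10 points from 10 μM with 0.1% DMSO. Values normalized to DMSO-only cells, fitted with variable-slope four-parameter model; where EC50 exceeds 10 μM, % inhibition at 10 μM reported.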

[2] = tested on: IL-6 (THP-1 cells); experiment: Inhibition of IL-6 in LPS-stimulated THP-1 monocytes (HTRF); assay type: cell-based; conditions: Homo sapiens; for EC50: LPS 500 ng/mL, IL-6 by HTRF; for inhibition at 10 µM: LPS stimulated, IL-6, at 10 μM, read-out: percent inhibition at 10 μM (given for EC50 of >10 μM)
How it was run: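 IL-6 release was read as the HTRF 665/620 nm ratio after 22 h of 500 ng/mL LPS at 37 °C. Before stimulation, THP-1 cells kept 24 h in 1% FBS were exposed 2 h to a 10-point 1:3 compound series starting at 10 μM, in 0.1% DMSO. Four-parameter EC50s came from DMSO-normalized duplicates, with % inhibition at 10 μM reported beyond 10 μM.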

EC50 [1]	EC50 [2]	SMILES	inhibition at 10 µM [1]	inhibition at 10 µM [2]
> 10 µM	> 10 µM	c1cc(N2CCCCC2)c2nc(-c3n[nH]c4ccc(-c5cncc(OCCN6CCCC6)c5)nc34)[nH]c2n1 [Compound 610, 3-(7-(Piperidin-1-yl)-3H-imidazo[4,5-b]pyridin-2-yl)-5-(5-(2-(pyrrolidin-1-yl)ethoxy)pyridin-3-yl)-1H-pyrazolo[4,3-b]pyridine]	4.8%	25.3%
> 10 µM	> 10 µM	COc1cncc(-c2ccc3[nH]nc(-c4nc5c(N6CCCCC6)ccnc5[nH]4)c3n2)c1 [Compound 612, 5-(5-Methoxypyridin-3-yl)-3-(7-(piperidin-1-yl)-3H-imidazo[4,5-b]pyridin-2-yl)-1H-pyrazolo[4,3-b]pyridine]	5.8%	44.6%
> 10 µM	0.92 µM	Cc1cn(-c2ccnc3[nH]c(-c4n[nH]c5ccc(-c6cncc(N7CC(N)C7)n6)nc45)nc23)cn1 [Compound 622, 1-(6-(3-(7-(4-Methyl-1H-imidazol-1-yl)-3H-imidazo[4,5-b]pyridin-2-yl)-1H-pyrazolo[4,3-b]pyridin-5-yl)pyrazin-2-yl)azetidin-3-amine]	9.8%	–
> 10 µM	0.404 µM	Cc1cn(-c2ccnc3[nH]c(-c4n[nH]c5ccc(-c6cncc(OCCN(C)C)c6)nc45)nc23)cn1 [Compound 627, N,N-Dimethyl-2-((5-(3-(7-(4-methyl-1H-imidazol-1-yl)-3H-imidazo[4,5-b]pyridin-2-yl)-1H-pyrazolo[4,3-b]pyridin-5-yl)pyridin-3-yl)oxy)ethan-1-amine]	22.4%	–
4.06 µM	> 10 µM	CN1CCN(c2ccnc3[nH]c(-c4n[nH]c5ccc(-c6cncc(OC7CCCCC7)c6)nc45)nc23)CC1 [Compound 639, 5-(5-(Cyclohexyloxy)pyridin-3-yl)-3-(7-(4-methylpiperazin-1-yl)-3H-imidazo[4,5-b]pyridin-2-yl)-1H-pyrazolo[4,3-b]pyridine]	–	33.5%
4.34 µM	> 10 µM	CN1CCN(c2ccnc3[nH]c(-c4n[nH]c5ccc(-c6cnccn6)nc45)nc23)CC1 [Compound 648, 3-(7-(4-Methylpiperazin-1-yl)-3H-imidazo[4,5-b]pyridin-2-yl)-5-(pyrazin-2-yl)-1H-pyrazolo[4,3-b]pyridine]	–	9.9%
> 10 µM	7.6 µM	c1cnc2[nH]c(-c3n[nH]c4ccc(-c5cncc(OC6CCNCC6)c5)nc34)nc2c1 [Compound 656, 3-(3H-Imidazo[4,5-b]pyridin-2-yl)-5-(5-(piperidin-4-yloxy)pyridin-3-yl)-1H-pyrazolo[4,3-b]pyridine]	22.1%	–
> 10 µM	> 10 µM	Oc1cncc(-c2ccc3[nH]nc(-c4nc5cccnc5[nH]4)c3n2)c1 [Compound 661, 5-(3-(3H-Imidazo[4,5-b]pyridin-2-yl)-1H-pyrazolo[4,3-b]pyridin-5-yl) pyridin-3-ol]	7.2%	27.9%
> 10 µM	> 10 µM	c1cc(-c2ccoc2)c2nc(-c3n[nH]c4ccc(-c5cncc(OCCN6CCCC6)c5)nc34)[nH]c2n1 [Compound 690, 3-(7-(Furan-3-yl)-3H-imidazo[4,5-b]pyridin-2-yl)-5-(5-(2-(pyrrolidin-1-yl)ethoxy)pyridin-3-yl)-1H-pyrazolo[4,3-b]pyridine]	37.6%	42.9%
> 10 µM	> 10 µM	COc1cncc(-c2ccc3[nH]nc(-c4nc5c(-c6ccoc6)ccnc5[nH]4)c3n2)c1 [Compound 692, 3-(7-(Furan-3-yl)-3H-imidazo[4,5-b]pyridin-2-yl)-5-(5-methoxypyridin-3-yl)-1H-pyrazolo[4,3-b]pyridine]	15.3%	39%
> 10 µM	> 10 µM	Cn1cc(-c2ccc3[nH]nc(-c4nc5c(-c6cccs6)ccnc5[nH]4)c3n2)cn1 [Compound 700, 5-(1-Methyl-1H-pyrazol-4-yl)-3-(7-(thiophen-2-yl)-3H-imidazo[4,5-b]pyridin-2-yl)-1H-pyrazolo[4,3-b]pyridine]	3.4%	0%
3.57 µM	> 10 µM	CN(C)CCOc1cncc(-c2ccc3[nH]nc(-c4nc5c(-c6cccs6)ccnc5[nH]4)c3n2)c1 [Compound 707, N,N-Dimethyl-2-((5-(3-(7-(thiophen-2-yl)-3H-imidazo[4,5-b]pyridin-2-yl)-1H-pyrazolo[4,3-b]pyridin-5-yl)pyridin-3-yl)oxy)ethan-1-amine]	–	35.1%
0.984 µM	1.79 µM	Cc1ccc(-c2ccnc3[nH]c(-c4n[nH]c5ccc(-c6cncc(OC7CCCCC7)c6)nc45)nc23)s1 [Compound 735, 5-(5-(Cyclohexyloxy)pyridin-3-yl)-3-(7-(5-methylthiophen-2-yl)-3H-imidazo[4,5-b]pyridin-2-yl)-1H-pyrazolo[4,3-b]pyridine]	–	–
6.25 µM	> 10 µM	CN(C)CCNc1cc(F)cc(-c2ccnc3[nH]c(-c4n[nH]c5ccc(-c6cncc(OCCN7CCCC7)c6)nc45)nc23)c1 [Compound 786, N^1-(3-Fluoro-5-(2-(5-(5-(2-(pyrrolidin-1-yl)ethoxy)pyridin-3-yl)-1H-pyrazolo[4,3-b]pyridin-3-yl)-3H-imidazo[4,5-b]pyridin-7-yl)phenyl)-N^2,N^2-dimethylethane-1,2-diamine]	–	0%

The next lines start with the compound.

SMILES	EC50 [1]	EC50 [2]	inhibition at 10 µM [1]	inhibition at 10 µM [2]
c1cc(-c2ccnc3[nH]c(-c4n[nH]c5ccc(-c6cnccn6)nc45)nc23)ccn1 [Compound 584, 5-(Pyrazin-2-yl)-3-(7-(pyridin-4-yl)-3H-imidazo[4,5-b]pyridin-2-yl)-1H-pyrazolo[4,3-b]pyridine]	> 10 µM	> 10 µM	8.5%	22%
O=C(CC1CCNCC1)Nc1cncc(-c2ccc3[nH]nc(-c4nc5c(-c6ccccn6)ccnc5[nH]4)c3n2)c1 [Compound 593, 2-(Piperidin-4-yl)-N-(5-(3-(7-(pyridin-2-yl)-3H-imidazo[4,5-b]pyridin-2-yl)-1H-pyrazolo[4,3-b]pyridin-5-yl)pyridin-3-yl)acetamide]	> 10 µM	> 10 µM	29.3%	41.8%
Cc1cn(-c2ccnc3[nH]c(-c4n[nH]c5ccc(C6=CCNCC6)nc45)nc23)cn1 [Compound 618, 3-(7-(4-Methyl-1H-imidazol-1-yl)-3H-imidazo[4,5-b]pyridin-2-yl)-5-(1,2,3,6-tetrahydropyridin-4-yl)-1H-pyrazolo[4,3-b]pyridine]	> 10 µM	1.55 µM	8.7%	–
c1cnc2[nH]c(-c3n[nH]c4ccc(-c5cn[nH]c5)nc34)nc2c1 [Compound 651, 3-(3H-Imidazo[4,5-b]pyridin-2-yl)-5-(1H-pyrazol-4-yl)-1H-pyrazolo[4,3-b]pyridine]	> 10 µM	> 10 µM	12%	0%
O=C(CC1CCNCC1)Nc1cncc(-c2ccc3[nH]nc(-c4nc5c(-c6ccsc6)ccnc5[nH]4)c3n2)c1 [Compound 673, 2-(Piperidin-4-yl)-N-(5-(3-(7-(thiophen-3-yl)-3H-imidazo[4,5-b]pyridin-2-yl)-1H-pyrazolo[4,3-b]pyridin-5-yl)pyridin-3-yl)acetamide]	> 10 µM	> 10 µM	26.9%	35.9%
Cc1ncc(-c2ccc3[nH]nc(-c4nc5c(-c6ccoc6)ccnc5[nH]4)c3n2)n1C [Compound 685, 5-(1,2-Dimethyl-1H-imidazol-5-yl)-3-(7-(furan-3-yl)-3H-imidazo[4,5-b]pyridin-2-yl)-1H-pyrazolo[4,3-b]pyridine]	2.82 µM	> 10 µM	–	24.3%
Cn1cc(-c2ccc3[nH]nc(-c4nc5c(-c6cc(F)cc(CNS(C)(=O)=O)c6)ccnc5[nH]4)c3n2)cn1 [Compound 764, N-(3-Fluoro-5-(2-(5-(1-methyl-1H-pyrazol-4-yl)-1H-pyrazolo[4,3-b]pyridin-3-yl)-3H-imidazo[4,5-b]pyridin-7-yl)benzyl)methanesulfonamide]	> 10 µM	> 10 µM	20.9%	24.2%
CS(=O)(=O)NCc1cc(F)cc(-c2ccnc3[nH]c(-c4n[nH]c5ccc(-c6cncc(NC(=O)CC7CCNCC7)c6)nc45)nc23)c1 [Compound 769, N-(5-(3-(7-(3-Fluoro-5-(methylsulfonamidomethyl)phenyl)-3H-imidazo[4,5-b]pyridin-2-yl)-1H-pyrazolo[4,3-b]pyridin-5-yl)pyridin-3-yl)-2-(piperidin-4-yl)acetamide]	> 10 µM	0.036 µM	12.1%	–
CN(C)CCNc1cc(F)cc(-c2ccnc3[nH]c(-c4n[nH]c5ccc(-c6cnccn6)nc45)nc23)c1 [Compound 792, N^1-(3-Fluoro-5-(2-(5-(pyrazin-2-yl)-1H-pyrazolo[4,3-b]pyridin-3-yl)-3H-imidazo[4,5-b]pyridin-7-yl)phenyl)-N^2,N^2-dimethylethane-1,2-diamine]	3.93 µM	> 10 µM	–	23.3%
